In paper PMC9122897, “SHR1032, a novel STING agonist, stimulates anti-tumor immunity and directly induces AML apoptosis” (Scientific Reports, 2022):

Legend:
[1] = tested on: mouse RAW164.7 macrophage cells; test: Western blot of TBK1 phosphorylation; format: cell-based; conditions: 10 µM SHR1032 vs 40 µM ADU-S100
Description: (§1) Figure 2 SHR1032 specifically and potently activates STING signaling pathway. IRF luciferase reporter assays in (a) THP1-STING-R232, THP1-STING-H232, THP1-STING-HAQ, and THP1-STING-KO cells. Cells were stimulated for 24 h with the indicated STING compounds and assessed for luciferase activity. IFNβ production and activation of cGAS-STING signaling pathway in (b) human THP1-STING-R232, human PBMCs from a donor homozygous for the R232 variant, cynomolgus PBMC, and mouse RAW164.7 macrophage cells were treated with STING agonists for 5 h. IFNβ in media was quantified by human or mouse ELISA kits respectively. (c) THP1-STING-R232 cells and mouse RAW164.7 macrophage cells were stimulated with 40 µM of ADU-S100 or 10 µM of SHR1032 for the indicated time points. The amount of pTBK1, total TBK1, STING and α-tubulin was measured by western blotting.
(§2) THP1 reporter cells were treated for 24 h with a total of 100 k cells and 150 ul media in each well a 96-well plate. […] Luminescence signal was measured using Tecan infinite M1000. EC50 values were calculated using non-linear regression analysis of GraphPad Prism. Cell growth was monitored by CellTiter-Glo Luminescent Cell Viability Assay (Promega) per manufacture’s protocol. GI50 values were calculated using non-linear regression analysis of GraphPad Prism. […]

THP1-STING-KO cells [2] = test: CellTiter-Glo cell growth; format: cell-based, human
Description: (§3) (a–d) AML cells were treated with STING agonists and standard of care cytarabine, and cell viability was measured by CellTiter Glo in (a) THP1-STING-R232, (b) THP1-STING-KO, (c) MV-4-11 and (d) MOLM-16. (e) MV-4-11, MOLM-16 and THP1-STING-KO cells were stimulated with 1 µM of SHR1032 for the indicated time points. The amount of pTBK1, total TBK1, pSTING, total STING and α-tubulin was measured by Western blot. pSTING phosphorylated STING. THP1 reporter cells were treated for 24 h with a total of 100 k cells and 150 ul media in each well a 96-well plate. Following the incubation, 20 µl of supernatant was transferred to an opaque 96 well ½ area plate and incubated for 30 s with 50 µl of QUANTI-Luc substrate (InvivoGen) per manufacturer’s instructions. Luminescence signal was measured using Tecan infinite M1000. EC50 values were calculated using non-linear regression analysis of GraphPad Prism. Cell growth was monitored by CellTiter-Glo Luminescent Cell Viability Assay (Promega) per manufacture’s protocol. GI50 values were calculated using non-linear regression analysis of GraphPad Prism. Cell lysates for western blotting were made in RIPA buffer (Sigma) with Halt Protease and Phosphatase Inhibitors (Thermo Scientific). Antibodies against pSTING, TBK1, pTBK1 and tubulin were purchased from Cell Signaling Technologies, and anti-STING was purchased from Protein Tech.

THP1 reporter cells = test: THP1 IRF luciferase reporter assay; format: cell-based; conditions: Homo sapiens, THP-1; IRF Lucia luciferase reporter, 24 h; read-out: THP1 reporter cell EC50
Text: We sought to develop small molecule compounds with increased STING agonist activity against human STING. GSK reported a series of non-CDN small molecules, represented by compound 1[13], with good human STING agonistic activity. Based on our molecular modeling analysis, along with the reported CDN-STING crystal structures, we designed a novel series of fused tricyclic heterocycle compounds and analyzed their binding to human STING with thermal shift assays and the potency in activation of STING signaling with a reporter cellular assay (Supplementary Table S1). Thermal shift assays measure the difference between apo STING and ligand bound STING in the inflection point at which 50% of protein is thermally unfolded (ΔTm). […] The ability of compounds to activate the IRF reporter gene in the THP1 cells was also evaluated.
as §2

[3] = tested on: mouse RAW164.7 macrophage cells; test: IFNβ ELISA; format: cell-based; conditions: 5 h, vs ADU-S100
Description: as §1
(§4) Human and Cynomolgous PBMC’s were thawed and spun down in Lymphocyte media (ZENBIO) and resuspended in media to 1.5 x 10^6 cells/ml density. […] Human and monkey IFN-β protein concentration was measured using human IFN-β Quantikine ELISA Kits (R&D Systems) per manufacture’s protocol. Mouse IFN-β was measured using mouse IFN-β Quantikine ELISA Kits (R&D Systems) per manufacture’s protocol. Mouse TNFα, IFN-β and IL-6 in the tumor lysates and plasma was measured by Quantikine ELISA Kits (R&D Systems) per manufacture’s protocol.

human PBMCs = test: IFNβ ELISA; format: cell-based; conditions: 5 h, vs ADU-S100
Description: as §1, §4

MV4-11 cells [4] = test: Western blot of TBK1 and STING phosphorylation; format: cell-based, human; conditions: MV4-11, 1 µM
Description: as §3

MOLM-16 cells [5] = test: Western blot of TBK1 and STING phosphorylation; format: cell-based, human; conditions: MOLM-16, 1 µM
Description: as §3

THP1-STING-KO cells [6] = test: Western blot of TBK1 and STING phosphorylation; format: cell-based, human; conditions: 1 µM
Description: as §3

MV4-11 cells [7] = test: CellTiter-Glo cell growth; format: cell-based; conditions: Homo sapiens; MV4-11, CellTiter Glo
Description: as §3

MOLM-16 cells [8] = test: CellTiter-Glo cell growth; format: cell-based; conditions: Homo sapiens, MOLM16; MOLM-16, CellTiter Glo
Description: as §3

EC50 (THP1 reporter cells): 30 nM
GI50 (MV4-11 cells [7]): 1 nM
GI50 (MOLM-16 cells [8]): 2.6 nM
Compound: CCn1nc(C)cc1C(=O)Nc1nc2cc(C(N)=O)cc(OC)c2n1CCC[C@H]1COc2cc(C(N)=O)cc3nc(NC(=O)c4cc(C)nn4CC)n1c23 [SHR1032]
TBK1 phosphorylation [1]: lower
cell growth inhibition (THP1-STING-KO cells [2]): not detectable
mouse IFNβ production [3]: lower than that with that of ADU-S100, but still detectable
human IFNβ production (human PBMCs): much greater amount of human IFNβ than ADU-S100
TBK1 and STING phosphorylation (MV4-11 cells [4]): induced TBK1 and STING phosphorylation
TBK1 and STING phosphorylation (MOLM-16 cells [5]): induced TBK1 and STING phosphorylation
TBK1 and STING phosphorylation (THP1-STING-KO cells [6]): not in THP1-STING-KO cells
